The record followed here is ChEMBL document CHEMBL3508693.

Holding throughout (format): cell-free
The species named for test [1] is Homo sapiens. The test can be described thus: (§1) In vitro plasma protein binding (reported as Fu[%]) of 500 ng.ml-1 [14C] aliskiren hemifumarate in human. The arrangement: conc 500 ng.ml-1, sampling time 1 h. Conditions: tested as the 14C-labelled form, at 500 ng/mL.
The species entered for test [2] is Homo sapiens. The test is described as §1. More on the design: conc 500 ng.ml-1, sampling time 1 h. To be noted: tested as the 14C-labelled form, at 500 ng/mL. This is another data set of the same source.
Test [3] is filed under the species Mus musculus. Put plainly: In vitro plasma protein binding (reported as Fu[%]) of 10,000 ng.ml-1 [14C] aliskiren hemifumarate in pooled plasma samples of mouse. To be noted: CD-1(ICR)BR, tested as the 14C-labelled form, at 10000 ng/mL. The arrangement: conc 10000 ng.ml-1, sampling time 1 h.
The species named for test [4] is Oryctolagus cuniculus. The test can be described thus: In vitro plasma protein binding (reported as Fu[%]) of 10,000 ng.ml-1 [14C] aliskiren hemifumarate in pooled plasma samples of rabbit. The arrangement: conc 10000 ng.ml-1, sampling time 1 h. Conditions: New Zealand White, tested as the 14C-labelled form, at 10000 ng/mL.
The species entered for test [5] is Rattus norvegicus. Put plainly: In vitro plasma protein binding (reported as Fu[%]) of 10,000 ng.ml-1 [14C] aliskiren hemifumarate in pooled plasma samples of rat. More on the design: conc 10000 ng.ml-1, sampling time 1 h. Conditions: WI(Glx/BRL/Han)BR, tested as the 14C-labelled form, at 10000 ng/mL.
For test [6], the species on record is Callithrix jacchus. Put plainly: In vitro plasma protein binding (reported as Fu[%]) of 10,000 ng.ml-1 [14C] aliskiren hemifumarate in pooled plasma samples of marmoset. The arrangement: conc 10000 ng.ml-1, sampling time 1 h. Conditions: tested as the 14C-labelled form, at 10000 ng/mL.
For test [7], the species on record is Homo sapiens. Described as §1. To be noted: tested as the 14C-labelled form, at 500 ng/mL. The arrangement: conc 500 ng.ml-1, sampling time 1 h. The source holds these as a separate data set.

Consider `COCCCOc1cc(C[C@@H](C[C@H](N)[C@@H](O)C[C@H](C(=O)NCC(C)(C)C(N)=O)C(C)C)C(C)C)ccc1OC`, for which the Fu is 49.8% in test [1]; 47.3% in test [2]; 28.8% in test [3]; 42.5% in test [4]; 38.3% in test [5]; 8.1% in test [6]. In test [7], the Fu was found to be 51.4%.
